Test results reported in patent publication US20040241225A1, “Modulation of vitamin storage” (priority 2001, published 2004).

Key:
[1] = Solubility of α-tocopheryl phosphate; format: physicochemical
[2] = format: physicochemical
Experimental: An extraction method was developed which gave the maximum recovery of TP. The stability of TP to the extraction methodology was tested by subjecting pure TP to the extraction protocol, virtually 100% recovery was obtained.

[3] = Liver TP level 24 h after a single dose of TP or tocopheryl acetate, quantitated by ESMS; conditions: rat, 24 h after administration

- solubility in water ([1]; high pH): soluble
- solubility in organic solvents ([1]; low pH): soluble
- resistance to oxidation ([2]; conditions of the standard colorimetric α-tocopherol analysis): resistant to oxidation
- liver TP ([3]; i.v., single dose 3 mg/kg): 17 ug ug/gm
- liver TP ([3]; i.v., single dose 10 mg/kg): 24 ug ug/gm
- liver TP ([3]; i.v., single dose 30 mg/kg): 28 ug ug/gm
- liver TP ([3]; i.v., single dose 100 mg/kg): 27 ug ug/gm
- liver TP ([3]; oral, single dose 10 mg/kg): 19.18 ug ug/gm
- liver TP ([3]; oral, single dose 30 mg/kg): 18.35 ug ug/gm
Substance: α-tocopheryl phosphate [TP]
- resistance to hydrolysis ([2]; alkaline and acid hydrolysis conditions of standard α-tocopherol extraction procedures): resistant to all of the alkaline and acid hydrolysis conditions
- cleavage of the phosphate bond ([2]; refluxing under strongly alkaline or acidic conditions in excess of 24 hours): does not lead to any cleavage of the phosphate bond
